The experiment relates to protein kinases (human kinome). The class given is cell-based. Conditions: for kinases the bifunctional compound degrades: as stated for the structure in the embodiments; for Kinase hits: kinases significantly downregulated vs DMSO (fold change cutoff −1.25, P-value<0.01), ≤8 h, 0.1-5 μM degrader, 7 cell lines; for Total no. kinase hits: number of degraded kinases per library compound. An excerpt:
Although development of targeted protein degraders requires a POI binder, among already-liganded proteins such as kinases, it was hypothesized that different targets would have a different propensity for current approaches to degrader-mediated destruction, which was termed ‘degradability’. […] It was rationalized that the probability of identifying the same kinase as a false positive in multiple treatments is low, therefore this analysis served to also assess the robustness of our data and subsequent interpretations. […] Overall, 62 protein kinases were degraded in more than 10 independent treatments, and remarkably, 9 of these (CDK4, AURKA, FER, WEE1, BLK. LIMK2, CDK6, GAK, LIMK1) were each degraded in at least 40 of the 154 independent treatments, emphasizing their predisposition to induced degradation (FIG. 1G; Appendix I).
Next, the frequency of degradation assessment was corrected for over-representation of molecules in the full dataset by omitting replicate profiling of compounds under different experimental conditions, to remove any bias. […] Unsurprisingly, the top degradable kinases mirror those from the previous analysis (CDK4, AURKA, FER, WEE1, BLK), confirming that in sufficiently large datasets, even with over-representation of certain molecules, frequency of degradation is a good measure of general tractability.

We go through 18 compounds from US20240269139A1, “COMPOUNDS FOR TARGETED PROTEIN DEGRADATION OF KINASES” (DANA-FARBER CANCER INSTITUTE, INC., priority 2020, published 2024).

As to `CC(C)S(=O)(=O)c1ccccc1Nc1nc(Nc2ccc(N3CCN(CCOCCNC(=O)CNc4ccc5c(c4)C(=O)N(C4CCC(=O)NC4=O)C5=O)CC3)cc2)ncc1Cl` (stereo not drawn) [SK-3-93], the “kinases the bifunctional compound degrades” value is “AAK1, ABL2, AURKA, BLK, BMP2K, CDK12, CDK13, CDK17, CDK2, CDK4, CDK5, CDK6, CDK7, CDK9, FER, GAK, ITK. LCK, LIMK2. PRKAA1, PTK2B, RPS6KA1, SRC, and WEE1”; the Kinase hits result was “AAK1, ABL2, AURKA, BLK, BMP2K, CDK12, CDK13, CDK17, CDK2, CDK4, CDK5, CDK6, CDK7, CDK9, FER, GAK, ITK, LCK, LIMK2, PRKAA1, PTK2B, RPS6KA1, SRC, WEE1,”; the “Total no. kinase hits” value was 24.
For the compound `Nc1ncnc2c1c(-c1ccc(Oc3ccccc3)cc1)nn2[C@@H]1CCCN(C(=O)CCCN2CCN(CCNC(=O)CCOCCOCCNc3cccc4c3C(=O)N(C3CCC(=O)NC3=O)C4=O)CC2)C1` (stereo partly drawn) [DD-03-119], the “kinases the bifunctional compound degrades” value was “ABL2, BLK, CSK, FYN, LCK, SRC, and TEC”; the Kinase hits result is on record as “ABL2, BLK, CSK, FYN, LCK, SRC, TEC”; the “Total no. kinase hits” value is reported as 3.
Consider `CC(C)(C)c1nc(-c2cccc(NS(=O)(=O)c3c(F)cccc3F)c2F)c(-c2ccnc(NCCOCCNC(=O)CCOCCOCCNc3cccc4c3CN(C3CCC(=O)NC3=O)C4=O)n2)s1` (stereo not drawn) [DD-03-107], for which the “kinases the bifunctional compound degrades” value was “BCKDK, COQ8A, LIMK1, PDK1, PDK2, and PDK3”; the Kinase hits result is reported as “BCKDK, COQ8A, LIMK1, PDK1, PDK2, PDK3”; the “Total no. kinase hits” value is listed as 6.
Turning to `Cc1c(NC(=O)c2ccc(C(C)(C)C)cc2)cccc1-c1cn(C)c(=O)c(Nc2ccc(C(=O)N3CCN(CCCCCCNC(=O)CNc4cccc5c4C(=O)N(C4CCC(=O)NC4=O)C5=O)CC3)cc2)n1` (stereo not drawn) [DD-03-171], the Kinase hits entry is “BTK” and the “Total no. kinase hits” value was determined as 1.
As for `Cc1cnc(Nc2ccc(N3CCN(CCCCCCC(=O)N[C@H](C(=O)N4C[C@H](O)C[C@H]4C(=O)N[C@@H](C)c4ccc(-c5scnc5C)cc4)C(C)(C)C)CC3)cc2)nc1Nc1cccc(S(=O)(=O)NC(C)(C)C)c1` [JWG-123], the Kinase hits entry is “AAK1, CDK16, WEE1, GAK, MARK4, NEK9, RPS6KB1, SIK2, SIK3, SNRK, STKI7A, STK17B” and the “Total no. kinase hits” value worked out at 12.
For the compound `Cc1cc(S(=O)(=O)NCCOCCOCCOCCOCCNc2cccc3c2C(=O)N(C2CCC(=O)NC2=O)C3=O)ccc1Nc1ncc(Br)c(Nc2cccc(F)c2C(N)=O)n1` (stereo not drawn) [TMX-02-172], the Kinase hits result is reported as “AURKA, AURKB, CDK1, CDK2, CDK5, MAPK8, MAPK9, PTK2, RPS6KA1, RPS6KA3, STK33, TTK” and the “Total no. kinase hits” value is on record as 12.
With `COc1cc(N2CCN(CCOCCOCCC(=O)N[C@H](C(=O)N3C[C@H](O)C[C@H]3C(=O)N[C@@H](C)c3ccc(-c4scnc4C)cc3)C(C)(C)C)CC2)ccc1Nc1ncc2c(n1)N(C)c1ccccc1C(=O)N2CC(F)(F)F` [FMF-03-178-1], the Kinase hits result was “BLK, CSK” and the “Total no. kinase hits” value is 2.
Turning to `Nc1ncc(-c2ccc(S(=O)(=O)N(CCCNC(=O)CCOCCOCCOCCOCCOCCNc3cccc4c3C(=O)N(C3CCC(=O)NC3=O)C4=O)C3CC3)cc2F)cc1-c1ccc2c(c1)CCNC2=O` (stereo not drawn) [WH-9533-153, N-(3-((4-(6-amino-5-(1-oxo-1,2,3,4-tetrahydroisoquinolin-6-yl)pyridin-3-yl)-N-cyclopropyl-3-fluorophenyl)sulfonamido)propyl)-1-((2-(2,6-dioxopiperidin-3-yl)-1,3-dioxoisoindolin-4-yl)amino)-3,6,9,12,15-pentaoxaoctadecan-18-amide], the Kinase hits result was “CDK14, CSNK1D, GSK3A, GSK3B, NUAK1, PIM2, STK17B, STK35, STK4” and the “Total no. kinase hits” value turned out to be 13.
Regarding `CC(C)(C)c1cc(NC(=O)Nc2ccc(Oc3ccnc(C(=O)NCCOCCOCCNC(=O)CNc4cccc5c4C(=O)N(C4CCC(=O)NC4=O)C5=O)c3)cc2F)n(-c2ccc3ncccc3c2)n1` (stereo not drawn) [TL13-178], the “kinases the bifunctional compound degrades” value was “CDK4, LIMK1, MAP3K20, MAPK14, and MAST3”.
Consider `Cc1ncsc1-c1ccc([C@H](C)NC(=O)[C@@H]2C[C@@H](O)CN2C(=O)[C@@H](NC(=O)CCOCCOCCOCCN2CCC(C(=O)Nc3ncc(SCc4ncc(C(C)(C)C)o4)s3)CC2)C(C)(C)C)cc1` [ZZ-1-31B], for which the Kinase hits result was “CDK9, CLK1” and the “Total no. kinase hits” value amounted to 2.
Regarding `CNC(=O)c1ccccc1Nc1cc(Nc2ccc(N3CCN(CCCCCCCCNc4cccc5c4C(=O)N(C4CCC(=O)NC4=O)C5=O)CC3)cc2OC)ncc1C(F)(F)F` (stereo not drawn) [MFH-5-116-1], the “kinases the bifunctional compound degrades” value is “AURKA, NUAK1, PTK2B, RPS6KA1, RPS6KA3, STK33, and WEE1”; the Kinase hits entry is given as “AURKA, NUAK1, PTK2B, KPS6KA1, RPS6KA3, STK33, WEE1”; the “Total no. kinase hits” value is listed as 7.
Consider `CC(C)S(=O)(=O)c1ccccc1Nc1nc(Nc2ccc(N3CCN(CCOCCOCCNC(=O)CNc4ccc5c(c4)C(=O)N(C4CCC(=O)NC4=O)C5=O)CC3)cc2)ncc1Cl` (stereo not drawn) [LT2-49, N-(2-(2-(2-(4-(4-((5-chloro-4-((2-(isopropylsulfonyl)phenyl)amino)pyrimidin-2-yl)amino)phenyl)piperazin-1-yl)ethoxy)ethoxy)ethyl)-2-((2-(2,6-dioxopiperidin-3-yl)-1,3-dioxoisoindolin-5-yl)amino)acetamide], for which the “kinases the bifunctional compound degrades” value is “CDK4, AURKA, WEE1, BLK, FER, CDK6, LIMK2, AAK1, CDK5, CDK2, ITK, CDK17, LCK, PTK2B, CDK9, CDK7, CDK13, PRKAA1, CDK12, BMP2K, and STK10”; the Kinase hits entry is “CDK4, AURKA, WEE1, BLK, FER, CDK6, LIMK2, AAK1, CDK5, CDK2, ITK, CDK17, LCK, PTK2B, CDK9, CDK7, CDK13, PRKAA1, CDK12, BMP2K, STK10”; the “Total no. kinase hits” value is given as 21.
In the case of `O=C(COc1cccc2c1C(=O)N(C1CCC(=O)NC1=O)C2=O)NCCCCCCCN1CCc2cc(Nc3ncc(C4CC4)c(NCCCNC(=O)C4CCC4)n3)ccc2C1` (stereo not drawn) [BSJ-04-178], the “kinases the bifunctional compound degrades” value was “AAK1, AURKA, AURKB. BMP2K, CDK10, CDK9, GAK, MARK2, MARK3, MARK4, SIK2, STK17A, STK17B, SNRK, ULK1, and WEE1”; the Kinase hits entry is listed as “AAK1, AURKA, AURKB, BMP2K, CDK10, CDK9, GAK, MARK2, MARK3, MARK4, SIK2, STKI7A, STK17B, SNRK, ULK1, WEE1”; the “Total no. kinase hits” value is 16.
For `CNC(=O)c1ccccc1Nc1cc(Nc2ccc(N3CCN(CCOCCOCCNC(=O)CNc4cccc5c4C(=O)N(C4CCC(=O)NC4=O)C5=O)CC3)cc2OC)ncc1C(F)(F)F` (stereo not drawn) [MFH-5-103-1], the “kinases the bifunctional compound degrades” value is “AURKA, CDK1O, CDK7, MAPK7, PTK2B, RPS6KA1, RPS6KA3, STK33, and WEE1”; the Kinase hits result was “AURKA, CDK10, CDK7, MAPK7, PTK2B, RPS6KA1, RPS6KA3, STK33, WEE1”; the “Total no. kinase hits” value came out at 9.
On to `Nc1ncnc2c1c(-c1ccc(Oc3ccccc3)cc1)nn2[C@H]1CC[C@H](N2CCN(CCOCCNC(=O)CNc3cccc4c3C(=O)N(C3CCC(=O)NC3=O)C4=O)CC2)CC1` (stereo partly drawn) [SB1-G-181], for which the Kinase hits entry is recorded as “ABL1, ABL2, AURKA, BLK, CSK, CSNK1E, FYN, LATS1, LCK, LIMK1, MAP2K5, SRC” and the “Total no. kinase hits” value came out at 12.
For the compound `O=C1CCC(N2C(=O)c3cccc(NCCCCCCCCN4CCC(NC(=O)c5[nH]ncc5NC(=O)c5c(Cl)cccc5Cl)CC4)c3C2=O)C(=O)N1` (stereo not drawn) [MFH-5-126-1], the “kinases the bifunctional compound degrades” value was “AURKA, BUB1, BUB1B, CDK13, CDK14, CDK17, CDK4, CDK9, CHEK1, CLK1, CSNK1A1, CSNK1D, DAPK1, ERN1, GSK3A, GSK3B, MAP3K1, NUAK1, PIK3CG, PIM2, PLK1, RIOK2, STK17A, STK7B, TTK, UHMK1, and WEE1”; the Kinase hits result was “AURKA, BUB1, BUB1B, CDK13, CDK14, CDK17, CDK4, CDK9, CHEK1, CLK1, CSNK1A1, CSNK1D, DAPK1, ERN1, GSK3A, GSK3B, MAP3K1, NUAK1, PIK3CG, PIM2, PLK1, RIOK2, STK17A, STK17B, TTK, UHMK1, WEE1”; the “Total no. kinase hits” value worked out at 27.
In the case of `Cc1ncsc1-c1ccc([C@H](C)NC(=O)[C@@H]2C[C@@H](O)CN2C(=O)[C@@H](NC(=O)CCOCCOCCN2CCN(c3ccc(Nc4ncc(Cl)c(Nc5ccccc5S(=O)(=O)C(C)C)n4)cc3)CC2)C(C)(C)C)cc1` [FMF-06-098-1, (2S,4R)-1-((S)-2-(3-(2-(2-(4-(4-((5-chloro-4-((2-(isopropylsulfonyl)phenyl)amino)pyrimidin-1320 2-yl)amino)phenyl)piperazin-I-yl)ethoxy)ethoxy)propanamido)-3,3-dimethylbutanoyl)-4-1321 hydroxy-N—((S)-1-(4-(4-methylthiazol-5-yl)phenyl)ethyl)pyrrolidine-2-carboxamide], the “kinases the bifunctional compound degrades” value was “AAK1, ABL2, AURKA, AURKB, BUB1B, CDC7, CDK1, CDK12, CDK13, CDK2, CDK4, CDk6, CDK7, CDK9, CHEK1, CSNK1D. EPHA1, FER, FGFR1, GAK, IRAK4, ITK, LIMK2, MAP4K2, MAP4K3, MAPK6, MAPK7, MARK4, MELK, PKN3, PLK4, PRKAA1, PTK2, PTK6, RPS6KA4, SIK2, STK35, TNK2. UHMK1, ULK1, and WEE1”; the Kinase hits entry was “AAK1, ABL2, AURKA, AURKB, BUB1B, CDC7, CDK1, CDK12, CDK13, CDK2, CDK4, CDk6, CDK7, CDK9, CHEK1, CSNK1D, EPHA1, FER, FGFR1, GAK, IRAK4, ITK, LIMK2, MAP4K2, MAP4K3, MAPK6, MAPK7, MARK4, MELK, PKN3, PLK4, PRKAA1, PTK2, PTK6, RPS6KA4, SIK2, STK35, TNK2, UHMK1, ULK1, WEE1”; the “Total no. kinase hits” value came out at 42.
As for `Cn1c(=O)c(-c2c(Cl)cccc2Cl)cc2cnc(Nc3ccc(OCCNC(=O)CCCCCCNC(=O)COc4cccc5c4C(=O)N(C4CCC(=O)NC4=O)C5=O)cc3)nc21` (stereo not drawn) [SB1-G-192-1, N-(2-(4-((6-(2,6-dichlorophenyl)-8-methyl-7-oxo-7,8-dihydropyrido[2,3-d]pyrimidin-2-yl)amino)phenoxy)ethyl)-7-(2-((2-(2,6-dioxopiperidin-3-yl)-1,3-dioxoisoindolin-4-1413 yl)oxy)acetamido)heptanamide], the “kinases the bifunctional compound degrades” value is “ABL1, ABL2, AURKA, BLK, CSK, EPHA3, EPHB6, FYN, GAK, LCK. LIMK2, MAPK14, NLK, PDK1, PKMYT1, SIK2, SRC, TNK2, WEE1, and YES1”; the Kinase hits entry is listed as “ABL1, ABL2, AURKA, BLK, CSK, EPHA3, EPHB6, FYN, GAK, LCK, LIMK2, MAPK14, NLK, PDK1, PKMYT1, SIK2, SRC, TNK2, WEE1, YES1”; the “Total no. kinase hits” value came out at 20.
